Measured values taken from paper PMC6017025, “Pharmacokinetics of Schizandrin and Its Pharmaceutical Products Assessed Using a Validated LC–MS/MS Method” (Molecules : A Journal of Synthetic Chemistry and Natural …, 2018).
Like-named read-outs stand apart in the source and are kept apart here.

Key:
[1] = Stability of schizandrin stock solution; format: physicochemical; conditions: up to 1 month at −20 °C
Protocol: (§1) Three concentrations (low, medium, and high) were evaluated for stability. The schizandrin concentrations of 5, 50, and 500 ng/mL were used in the method validation.

[2] = Stability of schizandrin in rat plasma (method validation); format: in vitro ADME; conditions: for Autosampler Stability / Short-Term Stability / Freeze-Thaw Stability / Long-Term Stability: rat plasma, in % (unit assumed); for Autosampler Stability: 10 °C for 24 h in autosampler; for Short-Term Stability: room temperature for 12 h; for Long-Term Stability: −20 °C for 1 month
Protocol: as §1
Stability was evaluated under four conditions: […]; […]; long-term stability kept at −80 °C for 1 month; and freeze-thaw stability: three samples were frozen and stored at −20 °C for 24 h and then thawed at room temperature. After repeating this cycle three times, the samples were analyzed by UHPLC-MS/MS.

[3] = Pharmacokinetics of schizandrin in plasma of freely moving rats after i.v./oral schizandrin or oral S. chinensis product (LC-MS/MS, noncompartmental analysis); format: in vivo, rat
Protocol: All experimental protocols involving animals were reviewed and approved by the Institutional Animal Care and Use Committee (IACUC number: 1060813) of National Yang-Ming University. Male Sprague-Dawley rats were obtained from the Laboratory Animal Center of the National Yang-Ming University, Taipei, Taiwan. The animals had free access to food (laboratory rodent diet 5P14, PMI Feeds, Richmond, IN) and water. Six Sprague-Dawley rats (220–240 g) were anesthetized with pentobarbital (50 mg/kg, i.p.) for cannulation. Surgical sites were shaved and disinfected with 70% ethanol solution, and a polyethylene tube (PE50) was implanted into the right jugular vein for collecting blood samples. The cannula were exteriorized and fixed in the dorsal region of the neck. Patency of the tube was maintained by flushing with heparinized saline (20 IU/mL). Rats were allowed to recover 24 h prior to drug administration. Schizandrin was dissolved in 10%DMSO and triply deionized water and administered by gastric gavage at a dose of 10 mg/kg. Schizandrin was dissolved in 10%ethanoland triply deionized water and administered by intravenous injection at a dose of 10 mg/kg. The S. chinensis pharmaceutical product was dissolved in triply deionized water and administered by gastric gavage at a dose of 3 g/kg and 10 g/kg (equivalent to 5.2 mg/kg and 17.3 mg/kg schizandrin).The gavage administration of S. chinensis volume was 3 mL. A 200 μL blood sample was withdrawn from the right jugular vein […] into a heparin-rinsed vial at 5, 15, 30, 45, 60, 90, 120, 150, 180, 240, 360 and 480 min. Blood samples were centrifuged at 6000× g for 10 min at 4 °C. The biological samples were stored at −20 °C before analysis.
Each blood sample (50 μL) was mixed with 1 mL of ethyl acetate and vortexed for 5 min. The mixture was centrifuged at 16000× g for 10 min at 4 °C. The supernatant (1 mL) was transferred to an Eppendorf vial and dried at 40 °C in a centrifugation evaporator. The dried sample was reconstituted in 190 μL of methanol and IS solution (methyl yellow, 5 ng/mL in methanol) and filtered through a 0.22 μm filter. Finally, the filtrate (10 μL) was applied to the UPLC-MS/MS system for analysis.
The LC–MS/MS analysis was performed using a Waters Acquity UPLC™ system (Waters Co., Manchester, UK) consisting of binary solvent manager, an automatic liquid chromatographic sampler and a Waters Xevo^TM tandem quadrupole mass spectrometry equipped with an electrospray ionization (ESI) source. The chromatography was performed on a Purospher® STAR RP-18 endcapped (100 mm × 2.1 mm, 2 μm, Merck KGaA, Darmstadt, Germany) analytical column and maintained at 40 °C in a column oven. The mobile phase consisted of 0.1% formic acid-methanol (15:85, v/v), and the flow rate was set at 0.2 mL/min. The injection volume was 10 μL. The positive ion mode with a multiple reaction monitor (MRM) was used for UPLC-MS/MS analysis. The following precursor-to-product ion transitions were used: m/z 433.22→415.19 for schizandrin and m/z 226.26→76.91 for methyl yellow (internal standard, IS).The instrument parameters were optimized as follows: capillary voltage, 3.2 kV; desolvation gas, nitrogen; desolvation temperature, 400 °C; desolvation gas flow rate, 800 L/h; cone voltage, 18 V; collision energy, 12 V and source temperature, 150 °C. MassLynx 4.1 software (Waters Corporation, Milford, MA, USA) was used for data processing.
Pharmacokinetic calculations were performed on each individual set of data using the pharmacokinetic software WinNonlin Standard Edition, version 1.1 (Scientific Consulting Inc., Apex, NC, USA) by noncompartmental methods for intravenous and oral administration. The results were analyzed using Student’s t-test and the SigmaPlot program (version 13). All data are presented as the mean ± standard deviation (SD).

[4] = male, Sprague-Dawley, iv, schizandrin 10 mg/kg, rat plasma, n = 6
[5] = male, Sprague-Dawley, po, schizandrin 10 mg/kg, rat plasma, n = 6
[6] = schizandrin 10 mg/kg, p.o., rat plasma, n = 6

- stability of stock solution [1]: stable
- degradation in biological samples ([2]; autosampler 24 h at 10 °C, 12 h at room temperature, 1 month at −80 °C, three freeze-thaw cycles): No significant degradation
- Autosampler Stability ([2]; 5 ng/mL): −1.78 ± 2.25
- Short-Term Stability ([2]; 5 ng/mL): −1.63 ± 8.36
- Freeze-Thaw Stability ([2]; 5 ng/mL, three freeze-thaw cycles): −8.04 ± 3.19
- Long-Term Stability ([2]; 5 ng/mL): −0.56 ± 0.39
- Autosampler Stability ([2]; 50 ng/mL): 3.17 ± 3.19
- Short-Term Stability ([2]; 50 ng/mL): 5.70 ± 4.52
- Freeze-Thaw Stability ([2]; 50 ng/mL, three freeze-thaw cycles): −5.16 ± 3.83
- Long-Term Stability ([2]; 50 ng/mL): −9.02 ± 0.40
- Autosampler Stability ([2]; 500 ng/mL): 0.43 ± 0.12
- Short-Term Stability ([2]; 500 ng/mL): 0.64 ± 0.08
- Freeze-Thaw Stability ([2]; 500 ng/mL, three freeze-thaw cycles): −0.63 ± 0.30
- Long-Term Stability ([2]; 500 ng/mL): −6.75 ± 6.39
- concentration at 15 min ([3]; male, Sprague-Dawley, intravenous, plasma sample from jugular vein of a rat at 15 min after 10 mg/kg, i.v. (Figure 2C)): 31.8 ng/mL
- AUC [3, 4]: 718 ng·h/mL
- MRT [3, 4]: 34.8 min
- clearance [3, 4]: 240 ± 30 mL/min/kg
- half-life [3, 4]: 42.2 ± 14.8 min
- clearance ([3]; male, Sprague-Dawley, plasma, schizandrin intravenous group (10 mg/kg), rat): 90 mL/min
- AUC [3, 5]: 112 ng·h/mL
- Cmax [3, 5]: 60 ± 30 ng/mL
- MRT [3, 5]: 113 min
- half-life [3, 5]: 74.7 ± 33.6 min
- bioavailability ([3]; male, Sprague-Dawley, rat, plasma, oral, 10 mg/kg, schizandrin 10 mg/kg, p.o. vs 10 mg/kg i.v., rat, read-out: F (bioavailability)): ~15.6%
- Tmax ([3]; male, Sprague-Dawley, rat, plasma, po, 10 mg/kg, schizandrin 10 mg/kg, p.o., rat plasma, n = 6, read-out: Tmax): ≤ 30 min
- clearance (CL) ([3]; schizandrin 10 mg/kg orally, rat): 340 ± 1240 mL/min/kg
- CL [3, 6]: 340 ± 1240 mL/min/kg
- Tmax [3, 6]: 22.50 ± 12.55 min
SMILES: COc1cc2c(c(OC)c1OC)-c1c(cc(OC)c(OC)c1OC)C[C@](C)(O)[C@@H](C)C2 [schizandrin]
